Experimental data from patent publication US11892401B2, “Boronic acid appended naphthyl-pyridinium fluorescent saccharide sensors for early detection of gastrointestinal diseases” (The Board of Trustees of the Leland Stanford Junior …, priority 2018, dated 2024).
Read-outs that look alike come from different tables or passages of the source.

What was measured:
[1] = Stern-Volmer quenching of HPTS anionic reporter dye; format: binding; conditions: 4 μM HPTS, 0.1 M sodium phosphate buffer pH 7.4, sphere of action quenching model
Procedure: (§1) Stern-Volmer quenching of HPTS and TSPP anionic reporter dyes: Stock solutions of exemplary boronic acid compounds (1, 3, and 4) were initially prepared in DMS (1 mg/mL) and then diluted in 0.1 M sodium phosphate buffer pH 7.4 to obtain the desired initial 2-fold concentration. Fluorescence measurements were conducted in a 96-well plate (Corning #3694) and to each well were added 20 μL of each exemplary compound and 8 μM of HPTS or TSPP in triplicate. Initial fluorescence wells contained 20 μL of each reporter dye and 20 μL of buffer. Blank wells received 40 μL of buffer only. Measurements were performed using a Tecan infinite M1000 instrument a plate reader (gain 100, flashes 30, z-position 1.8 cm) Plates were shaken for 30 seconds (2 mm orbital amplitude) prior to reading. After blank subtraction, fluorescence intensity relative to initial total fluorescence of HPTS or TSPP (Fo/F) for each sample was calculated.
(§2) Given the cationic character of the subject receptor compounds, their ability to form a non-fluorescent ground state complex with anionic reporter dyes, such as HPTS and TSPP was investigated. The fluorescence quenching of each dye can be quantitatively monitored by Stern-Volmer analysis (Albrecht, C., Anal. Bioanal. Chem. 2008, 390 (5), 1223-1224). Two types of quenching can exist, static quenching, due to complex formation, and dynamic quenching, due to collisional encounters between the dye and quencher. Based on previous work with bis-boronic acid appended viologens (BBV) and their ability to quench HPTS (Cordes, D. B.; Gamsey, S.; Sharrett, Z.; Miller, A.; Thoniyot, P.; Wessling, R. A.; Singaram, B., Langmuir 2005, 21 (14), 6540-6547), a similar quenching mechanism was envisaged for each anionic reporter dye, through static quenching. The effects of adjusting the quencher to dye ratio for HPTS and TSPP with each of compounds 1, 3, and 4 while monitoring the decrease of fluorescence for each dye are shown in FIG. 5, panel A (HPTS) and FIG. 5, panel B (TSPP).
(§3) With each of compounds 1, 3 and 4 only having two cationic groups, it was anticipated anticipated that higher (>400 μM) amounts of each quencher would be required to achieve at least 80% of quenched fluorescence. […] Using the fluorescence data, the quenching efficiency can be determined using the available Stern-Volmer fitting models. The best fit to the Stern-Volmer plots for the exemplary compounds was obtained using the sphere of action quenching model (Eq. 2) (Frank, J. M.; Vavilov, S. I., Z. Phys. 1931, 69, 100-10).
(§4) [formula] Where V is the dynamic quenching constant, Ks is the static quenching constant, [Q] is the concentration of the quencher, and […] is derived from the Poisson distribution. There was higher contribution from the static quenching given the higher static quenching constants compared to the dynamic constants (Table 1).

[2] = Stern-Volmer quenching of TSPP anionic reporter dye; format: binding; conditions: 4 μM TSPP, 0.1 M sodium phosphate buffer pH 7.4, sphere of action quenching model
Procedure: as §1, §2, §3, §4

[3] = pH profile / pKa by fluorescence spectroscopy; format: physicochemical; conditions: receptor 500 μM (2) or 250 μM (3, 4), fluorescence titration pH 3-10
Procedure: Titration curves with pH were determined using the following buffer solutions, pH 3-4 acetate buffer; pH 5-8.5 phosphate buffer; and pH 9-10 carbonate buffer. Fluorescence intensity was monitored in the absence or presence of 30 mM lactulose for exemplary receptor compounds, e.g., 2, 500 μM; 3, 250 μM; and (4, 205 µM in the indicated buffer conditions. Stock solutions of each boronic acid receptor compound (2, 3, and 4) were initially prepared in DMS (1 mg/mL) and then diluted in appropriate buffer conditions to obtain the desired initial 2-fold concentration. Fluorescence measurements were conducted in a 96-well plate (Corning #3694) and to each well 30 μL of each receptor compound and buffer media with or without lactulose were added in triplicate. Blank wells received 60 μL of buffer only. Measurements were performed using a Tecan Infinite M1000 instrument, a plate reader (gain 100, flashes 30, z-position 1.8 cm) Plates were shaken for 30 seconds (2 mm orbital amplitude) prior to reading. After blank subtraction, fluorescence intensity relative to initial total fluorescence (at pH 3).
Each pH-profile was fitted with equation S1, where y=normalized intensity, ymax=maximum normalized intensity, ymin=minimum normalized intensity, x=pH value, k=acid dissociation constant and pka values were obtained from this constant (pka=−log k).
Titration curves fitted to equation S1.

[4] = Absorption measurements with increasing lactulose; format: physicochemical; conditions: 0.1 M sodium phosphate buffer pH 7.4; 100 μM (1, 2), 50 μM (3, 4)
Procedure: Absorption measurements of exemplary boronic acid receptor compounds: All absorption measurements were carried out using an Agilent Technologies Cary 60 Vis instrument in a quartz cuvette (1 cm pathlength). Stock solutions (1 mg/mL) of each compound was initially prepared in DMSO and then diluted to the desired concentration in 0.1 M sodium phosphate buffer pH 7.4 which gave minimal DMSO amount of at least 15%. Concentrations for each boronic acid receptor in cuvette are as follows; (1)=100 μM, (2)=100 μM, (3)=50 μM, and (4)=50 µM. Measurements were done in situ by taking the absorbance of each receptor compound in phosphate buffer pH 7.4, then aliquots of buffered 1 M lactulose (0.5-7 μL) was added, shaken for 30 seconds, and the new absorbance was recorded. With reference to FIG. 3, panels A to D, change of absorbance for each receptor compound was monitored as a function of increasing lactulose. […] Each compound provided absorbance maxima between 300-350 nm and with isosbestic points between 330-350 nm for all four receptors. Additionally, the compounds provided molar extinction coefficients of 1.17×10^4 (100 μM), 1.10×10^4 (100 μM), 2.77×10^4 (50 μM), and 5.01×10^4 (50 μM) M^−1 cm^−1 for 1-4 respectively. Without being bound to any particular theory, these absorption changes upon sugar binding at physiological pH for compounds 1-4 is indicative of a possible charge transfer process.

[5] = Fluorescence emission of receptor compounds with increasing lactulose; conditions: phosphate buffer pH 7.4; for fluorescence intensity change on initial introduction of lactulose: lactulose 0.5 mM; for emission maxima: receptor 500 μM
Procedure: Fluorescence Measurements of exemplary boronic acid receptor compounds: Stock solutions of each boronic acid receptor compound (1-4) were initially prepared in DMS (1 mg/mL) and then diluted to desired initial 1 mM concentration before adding to the wells. Each lactulose concentration points were prepared in 0.1 M sodium phosphate buffer as 2-fold of the desired final concentration in each well. Each well received 20 μL of each receptor compound and sugar concentration (each data point recorded in triplicates) and the fluorescence measurements were conducted in a 96-well plate (Corning #3694) using a Tecan infinite M1000 instrument a plate reader (gain 100, flashes 30, z-position 1.8 cm) Plates were shaken for 30 seconds (2 mm orbital amplitude) prior to reading.
With reference to FIG. 4, panels A to D, the effect of lactulose on the fluorescent properties of each receptor compound (1-4) was examined in phosphate buffer pH 7.4. Receptor compounds (1) and (2) observed similar emission profiles with emission maxima at 504 and 490 nm, meanwhile the emission maxima for (3) and (4) was 50 nm less which peaked at 440 nm. […] These types of fluorescent changes have been previously observed by Norrild where a pyridinium moiety is directly conjugated to an anthracene core (Eggert, H.; Frederiksen, J.; Morin, C.; Norrild, J. C., Journal of Organic Chemistry 1999, 64 (11), 3846-3852). Without being bound to any particular theory, it was hypothesized that the pyridinium unit in the subject receptor compounds may act as an electron sink for the singlet electron diminishing the fluorescence intensity. Upon boronic acid-sugar recognition and subsequently conversion of the hybridization of the boron atom from sp^2 to anionic sp^3 generating a zwitterion induces an internal charge transfer (ICT)-like mechanism increasing the fluorescence intensity.

[6] = Fluorescence recovery of HPTS-receptor probes with 20 sugars; conditions: 4 μM HPTS, optimal Q:D ratio, pH 7.4, 20 sugars
Procedure: Fluorescence recovery of each anionic reporter dyes: Fluorescence recovery measurements for sugar binding studies were conducted by preparing 96-well plates with the addition of 20 μL of the boronic acid receptor-fluorophore (HPTS or TSPP) probe solution as 2-fold concentrate (for example, 160 μM for (1) & 8 μM HPTS or 800 μM for (1) & 8 μM for TSPP) in 0.1 M sodium phosphate buffer pH 7.4. At the time of running the assay, each well received 20 μL of sample in triplicate. Blank wells were given 40 μL buffer with neither HPTS nor boronic acid receptor compound. Baseline fluorescence wells contained 20 μL of buffer and 20 μL of probe solution. Fluorescence recovery of HPTS was measured on the plate reader. After blank subtraction, fluorescence intensity relative to initial quenched HPTS (F/Fo) for each sample was calculated. Under these conditions, Fo is a non-zero value after background subtraction with about 20% of maximum fluorescence intensity. […]
Each exemplary boronic acid appended naphthyl-pyridinium quencher-dye combination provided unique fluorescent recovery characteristics across all 20 sugars and sugar derivatives analyzed. […]

[7] = 30 mM lactulose, read-out: pka-with 30 mM lactulose
[8] = aqueous buffer solutions in a 96-well plate, no lactulose, read-out: pKa-absence of lactulose

| Structure (SMILES) | HPTS Ks (static quenching constant) [1] | HPTS V (dynamic quenching constant) [1] | TSPP Ks (static quenching constant) [2] | TSPP V (dynamic quenching constant) [2] | pKa [3, 7] | pKa [3, 8] | molar extinction coefficient [4] | fluorescence intensity change on initial introduction of lactulose [5] | emission maxima [5] | change in fluorescence recovery, HPTS combination [6] |
| --- | --- | --- | --- | --- | --- | --- | --- | --- | --- | --- |
| OB(O)c1ccccc1C[n+]1ccc(-c2ccc3cc(-c4cc[n+](Cc5ccccc5B(O)O)cc4)ccc3c2)cc1 [Compound 3] | 9.29 ± 0.4 × 10^4 M^−1 | 109 ± 18 M⁻¹ | 5.01 ± 0.7 × 10^4 M^−1 | 68 ± 13 M⁻¹ | 5.8 ± 0.1 | 7.8 ± 0.03 | 27700 M⁻¹ cm⁻¹ | drastic intensity change | 440 nm | – |
| OB(O)c1ccccc1C[n+]1ccc(-c2ccc3ccccc3c2)cc1.[Br-] [Compound 2, 1-(2-boronobenzyl)-4-(naphthalen-2-yl) pyridinium bromide] | – | – | – | – | 5.5 ± 0.06 | 7.7 ± 0.08 | 11000 M⁻¹ cm⁻¹ | – | 490 nm | – |
| OB(O)c1ccccc1C[n+]1ccc(-c2ccc3ccc(-c4cc[n+](Cc5ccccc5B(O)O)cc4)cc3c2)cc1 [Compound 4] | 1.00 ± 0.9 × 10^5 M^−1 | 100 ± 14 M⁻¹ | 1.45 ± 0.1 × 10^4 M^−1 | 80 ± 10 M⁻¹ | 5.7 ± 0.05 | 8.2 ± 0.02 | 50100 M⁻¹ cm⁻¹ | drastic intensity change | 440 nm | – |
| OB(O)c1cc(C[n+]2ccc(-c3ccc4ccccc4c3)cc2)cc(C[n+]2ccc(-c3ccc4ccccc4c3)cc2)c1 [Compound 1] | 1.01 ± 0.5 × 10^5 M^−1 | 63 ± 15 M⁻¹ | 5.24 ± 0.3 × 10^4 M^−1 | 112 ± 46 M⁻¹ | – | – | 11700 M⁻¹ cm⁻¹ | – | 504 nm | ≥ 1.5 fold |
